Data as given in the CheMixHub viscosity set.

Assay: xn = mol fraction of the nth substance listed

CCCCCO + C1CCCCC1
Conditions	viscosity [mPa·s]
293.15 K, 100 kPa, x2 = 0.0815	3.56
293.15 K, 100 kPa, x2 = 0.1623	3.17
293.15 K, 100 kPa, x2 = 0.2416	2.81
293.15 K, 100 kPa, x2 = 0.3481	2.37
293.15 K, 100 kPa, x2 = 0.4401	2.06
293.15 K, 100 kPa, x2 = 0.5592	1.69
293.15 K, 100 kPa, x2 = 0.6501	1.46
293.15 K, 100 kPa, x2 = 0.7414	1.28
293.15 K, 100 kPa, x2 = 0.8502	1.1
293.15 K, 100 kPa, x2 = 0.9414	1.02
298.15 K, 101 kPa, x1 = 0.0229	0.889
298.15 K, 101 kPa, x1 = 0.0543	0.908
298.15 K, 101 kPa, x1 = 0.14	0.991
298.15 K, 101 kPa, x1 = 0.2319	1.064
298.15 K, 101 kPa, x1 = 0.3975	1.326
298.15 K, 101 kPa, x1 = 0.5045	1.548
298.15 K, 101 kPa, x1 = 0.6384	1.974
298.15 K, 101 kPa, x1 = 0.7129	2.264
298.15 K, 101 kPa, x1 = 0.8283	2.738
298.15 K, 101 kPa, x1 = 0.904	3.066
303.15 K, 100 kPa, x2 = 0.0815	2.7
303.15 K, 100 kPa, x2 = 0.1623	2.41
303.15 K, 100 kPa, x2 = 0.2416	2.15
303.15 K, 100 kPa, x2 = 0.3481	1.84
303.15 K, 100 kPa, x2 = 0.4401	1.61
303.15 K, 100 kPa, x2 = 0.5592	1.34
303.15 K, 100 kPa, x2 = 0.6501	1.18
303.15 K, 100 kPa, x2 = 0.7414	1.05
303.15 K, 100 kPa, x2 = 0.8502	0.92
303.15 K, 100 kPa, x2 = 0.9414	0.85
303.15 K, 101 kPa, x1 = 0.6491	1.531
303.15 K, 101.33 kPa, x1 = 0.0977	0.8877
303.15 K, 101.33 kPa, x1 = 0.2165	0.9922
303.15 K, 101.33 kPa, x1 = 0.3008	1.095
303.15 K, 101.33 kPa, x1 = 0.4012	1.222
303.15 K, 101.33 kPa, x1 = 0.5004	1.388
303.15 K, 101.33 kPa, x1 = 0.6025	1.586
303.15 K, 101.33 kPa, x1 = 0.7049	1.823
303.15 K, 101.33 kPa, x1 = 0.7922	2.076
303.15 K, 101.33 kPa, x1 = 0.9023	2.447
308.15 K, 101 kPa, x1 = 0.0229	0.757
308.15 K, 101 kPa, x1 = 0.0543	0.772
308.15 K, 101 kPa, x1 = 0.14	0.822
308.15 K, 101 kPa, x1 = 0.2319	0.894
308.15 K, 101 kPa, x1 = 0.3975	1.078
308.15 K, 101 kPa, x1 = 0.5045	1.248
308.15 K, 101 kPa, x1 = 0.6384	1.537
308.15 K, 101 kPa, x1 = 0.6491	1.452
308.15 K, 101 kPa, x1 = 0.7129	1.732
308.15 K, 101 kPa, x1 = 0.8283	2.09
308.15 K, 101 kPa, x1 = 0.904	2.335
313.15 K, 100 kPa, x2 = 0.0815	2.08
313.15 K, 100 kPa, x2 = 0.1623	1.88
313.15 K, 100 kPa, x2 = 0.2416	1.7
313.15 K, 100 kPa, x2 = 0.3481	1.47
313.15 K, 100 kPa, x2 = 0.4401	1.3
313.15 K, 100 kPa, x2 = 0.5592	1.11
313.15 K, 100 kPa, x2 = 0.6501	0.98
313.15 K, 100 kPa, x2 = 0.7414	0.88
313.15 K, 100 kPa, x2 = 0.8502	0.78
313.15 K, 100 kPa, x2 = 0.9414	0.72
313.15 K, 101 kPa, x1 = 0.6491	1.327
318.15 K, 101 kPa, x1 = 0.0229	0.649
318.15 K, 101 kPa, x1 = 0.0543	0.658
318.15 K, 101 kPa, x1 = 0.14	0.694
318.15 K, 101 kPa, x1 = 0.2319	0.758
318.15 K, 101 kPa, x1 = 0.3975	0.883
318.15 K, 101 kPa, x1 = 0.5045	1.01
318.15 K, 101 kPa, x1 = 0.6384	1.227
318.15 K, 101 kPa, x1 = 0.7129	1.364
318.15 K, 101 kPa, x1 = 0.8283	1.628
318.15 K, 101 kPa, x1 = 0.904	1.802
323.15 K, 100 kPa, x2 = 0.0815	1.64
323.15 K, 100 kPa, x2 = 0.1623	1.49
323.15 K, 100 kPa, x2 = 0.2416	1.36
323.15 K, 100 kPa, x2 = 0.3481	1.2
323.15 K, 100 kPa, x2 = 0.4401	1.08
323.15 K, 100 kPa, x2 = 0.5592	0.94
323.15 K, 100 kPa, x2 = 0.6501	0.85
323.15 K, 100 kPa, x2 = 0.7414	0.77
323.15 K, 100 kPa, x2 = 0.8502	0.69
323.15 K, 100 kPa, x2 = 0.9414	0.63

Cc1ccnc(C)c1 + C1CCCCC1
viscosity [mPa·s], 101 kPa
Conditions	x1 = 0.1087	x1 = 0.208	x1 = 0.3004	x1 = 0.407	x1 = 0.507	x1 = 0.6004	x1 = 0.6977	x1 = 0.8002	x1 = 0.9019
303 K	0.7378	0.6882	0.6701	0.6574	0.6585	0.6674	0.6805	0.7102	0.7412
313 K	0.6355	0.6204	0.6004	0.5891	0.5844	0.6004	0.6055	0.6285	0.6543
323 K	0.5624	0.533	0.5166	0.5092	0.5073	0.52	0.54	0.5502	0.583
